Laboratory results taken from US5428036A (H. Lundbeck A/S, priority 1990, dated 1995).
pIC50: −log10 of the molar value.

How the values were obtained:
[1] = target: T1, serotonin S2 (5-HT2) receptors (Rattus norvegicus, UniProt P14842); test: Inhibition of 3H-ketanserin binding to serotonin S2 (5-HT2) receptors in rat cortex in vitro; conditions: for pIC50: 0.5 nM 3H-ketanserin, rat cortex membranes, 37° C., 30 min
T1 construct: from tissue; host or cells: cerebral cortex membranes of male Wistar (Mol:Wist) rats
T1 sequence (P14842 whole entry): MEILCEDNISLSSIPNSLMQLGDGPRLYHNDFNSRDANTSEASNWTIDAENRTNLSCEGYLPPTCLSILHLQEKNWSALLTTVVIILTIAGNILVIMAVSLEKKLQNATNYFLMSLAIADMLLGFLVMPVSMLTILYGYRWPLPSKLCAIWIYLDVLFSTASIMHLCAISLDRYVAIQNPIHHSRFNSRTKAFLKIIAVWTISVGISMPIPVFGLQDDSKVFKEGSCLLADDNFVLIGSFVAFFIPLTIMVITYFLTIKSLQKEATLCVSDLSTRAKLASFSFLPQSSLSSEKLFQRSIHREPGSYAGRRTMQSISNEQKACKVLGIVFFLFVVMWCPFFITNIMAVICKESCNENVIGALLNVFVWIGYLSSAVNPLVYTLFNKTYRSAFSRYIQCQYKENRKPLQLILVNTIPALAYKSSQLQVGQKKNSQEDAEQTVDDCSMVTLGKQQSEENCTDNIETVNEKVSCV
Description: (§1) The prodrugs of the invention were tested in vitro for 5-HT2 receptor affinity (^3 H-ketanserin binding) and for 5-HT2 antagonistic effect in vivo (antagonism of quipazine induced head twiches).
Inhibition of ^3 H-ketanserin Binding to Serotonin S2 (5-HT2)Receptors in Rat Cortex in vitro
By this method the inhibition by drugs of the binding of ^3 H-Ketanserin (0,5 nM) to serotonin S2 (5-HT2) receptors in membranes from rat corex is determined in vitro. Method in Hyttel, Pharmacol. & Toxicol, 61, 126-129 1987.
Male Wistar (Mol:Wist) rats are sacrificed and cortical tissue is dissected and weighed. The tissue is homogenized (Ultra Turrax, 10 sec.) in 10 ml of ice-cold 50 mM tris buffer pH 7.7 (at 25° C.). The centrifuge glass ware used in this step has been rinsed by sonication for 10 min. in ethanol. The homogenate is centrifuged twice at 20,000 g for 10 min. at 4° C. with rehomogenization of the pellet in 10 ml ice-cold buffer. The final pellet is homogenized in 500 vol (w/v) ice-cold buffer. Incubation tubes kept on ice in triplicate receive 100 μl of drug solution in water (or water for total binding) and […] of tissue suspension (final tissue content corresponds to 4 mg original tissue). The binding experiment is initiated by addition of 100 μl of ^3 H-Ketanserin (final concentration 0.5 nM) and by placing the tubes in a 37° C. water bath. After incubation for 30 min. the samples are filtered under vacuum (0-50 mBar) through Whatman GF/F filters (25 mm). The tubes are rinsed with 5 ml ice-cold buffer which are then poured on the filters. Thereafter, the filters are washed with 2×5 ml of buffer. The filters are placed in counting vials and 4 ml of appropriate scintillation fluid (e.g. Picofluor™ 15) are added. After shaking for 1 h and storage 2 hrs in the dark the content of radioactivity is determined by liquid scintillation counting. Specific binding is obtained by subtracting the nonspecific binding in the presence of 1 μM mianserin. For determination of the inhibition of binding five concentrations of drugs covering 3 decades are used.
The IC50 value is determined as the concentration at which the binding is 50% of the total binding in control samples minus the nonspecific binding in the presence of 1 μM mianserin.
^3 H-Ketanserin=[ethylene-^3 H]-ketanserin hydrochloride from New England Nuclear, specific activity 60-80 Ci/mmol.

[2] = target: T2, 5-HT2 (Rattus norvegicus, UniProt P14842); test: Quipazine inhibition (antagonism of quipazine induced head twitches in rats); format: in vivo; conditions: for ED50: po, p.o. 24 hrs before quipazine (6.8 mg/kg, s.c.), head twitches, rat
T2 construct: Four rats, male Wistar (Mol:Wist) SPF rats, are used at each dose level; from tissue; host or cells: living male Wistar (Mol:Wist) SPF rats; receptor endogenous to the animal
T2 sequence (P14842 whole entry): as above
Description: as §1
Quipazine is a 5-HT2 agonist, which induces head twitches in rats. The test is a test for 5-HT2 -antagonistic effect measuring the ability to inhibit head twitches. The method and test results for some reference substances are published by Arnt et al. (Drug Dev. Res., 16, 59-70, 1989).
Test substance is given p.o. 24 hrs before quipazine administration (6.8 mg/kg, s.c., dimaleate). Four rats, male Wistar (Mol:Wist) SPF rats, are used at each dose level. A control group is included each test day. After quipazine administration the rats are individually placed in the observation cages and head twitches are counted in an observation period of 10 min. 30-40 min. after injection of quipazine.
Total number of head twitches in each group are calculated and the result for each dose is expressed as percent of the response in the control group. ED50 values are calculated by log-probit analysis. The test must be repeated if the average number of head twitches is lower than 9 in the control group.

[3] = Sertindole concentration in dog serum after i.m. depot dosing in Viscoleo (HPLC); format: in vivo, Beagle dogs; conditions: i.m. depot formulation in dogs; FIG. 1
Description: The depot effects of the compounds of the invention were determined as described in the following example:
Seven Beagle dogs were used. One male and one female dog were used for each preparation exept for 1a where only one female dog was used. The compounds were dissolved in Viscoleo®. One ml Viscoleo® equivalent 1 kg dog. The dogs were dosed i.m. approx. 5 ml in each thigh.
Blood samples were drawn at 1,2, 4, 8, and 24 hours after dosing, and 2, 4, 7, 10, and 14 days after dosing.
The serum samples were analyzed by HPLC using a system consisting of a Spherisorb S5W column (25 cm×4.6 mm) and a Hewlett Packard HP 1090 chromatograph with a HP 1050 UV-absorbance detector with a measuring wavelength of 254 nm. Elution was performed with n-heptane/2-propanol/conc. ammonia/water in the ratio 100/18.4/0.5/0.2, v/v as eluent at ambient temperature with a pressure of approximately 70 bar and a flow rate of 1 ml/min.

Row | SMILES | pIC50 [1] | ED50 [2] [µmol/kg] | Serotonin S2 (5-HT2) antagonism in vitro ([1]; in vitro, statement in words) | Serotonin S2 (5-HT2) antagonism in vivo ([2]; in vivo, statement in words) | decomposition to sertindole after injection of a depot formulation [3]
1 | O=C(c1ccccc1)N1CCN(CCN2CCC(c3cn(-c4ccc(F)cc4)c4ccc(Cl)cc34)CC2)C1=O [Compound 1f, 3-[1-[2-(3-benzoyl-2-imidazolidinon-1-yl)ethyl]-4-piperidyl]-5-chloro-1-(4-fluorophenyl)-1H-indole] | 8.03 | 0.05 | – | – | –
2 | CC(=O)Oc1ccccc1C(=O)N1CCN(CCN2CCC(c3cn(-c4ccc(F)cc4)c4ccc(Cl)cc34)CC2)C1=O [Compound 8c] | 7.62 | 0.057 | – | – | –
3 | CCCCCCCC(=O)N1CCN(CCN2CCC(c3cn(-c4ccc(F)cc4)c4ccc(Cl)cc34)CC2)C1=O [Compound 8f, 5-chloro-1-(4-fluorophenyl)-3-[1-[2-(3-octanoyl-2-imidazolidinon-1-yl)ethyl]-4-piperidyl]-1H-indole] | 6.85 | 0.092 | – | – | –
4 | O=C1N(CO)CCN1CCN1CCC(c2cn(-c3ccc(F)cc3)c3ccc(Cl)cc23)CC1 [Compound 5a, 5-Chloro-1-(4-fluorophenyl)-3-[1-[2-(3-hydroxymethyl-2-imidazolidinon-1-yl)ethyl]-4-piperidyl]-1H-indole] | 9.33 | 0.037 | – | – | –
5 | CN(C)C(=O)N1CCN(CCN2CCC(c3cn(-c4ccc(F)cc4)c4ccc(Cl)cc34)CC2)C1=O [Compound 4a, 5-Chloro-3-[1-[2-(3-dimethylcarbamyl-2-imidazolidinon-1-yl)ethyl]-4-piperidyl]-1-(4-fluorophenyl)-^1 H-indole] | 9.05 | 0.24 | – | – | –
6 | O=C1NCCN1CCN1CCC(c2cn(-c3ccc(F)cc3)c3ccc(Cl)cc23)CC1 [sertindole, 5-chloro-1-(4-fluorophenyl)-3-[1-[2-(2-imidazolidinon-1-yl)ethyl]-4-piperidyl]-1H-indole, reference compound] | – | – | very potent | very potent | –
7 | CCCCCCCCCCOCN1CCN(CCN2CCC(c3cn(-c4ccc(F)cc4)c4ccc(Cl)cc34)CC2)C1=O [Compound 7d] | 7.31 | 0.15 | – | – | –
8 | CCCCCCCC/C=C\CCCCCCCC(=O)N1CCN(CCN2CCC(c3cn(-c4ccc(F)cc4)c4ccc(Cl)cc34)CC2)C1=O [Compound 2a] | 6.59 | 0.55 | – | – | –
9 | CN(C)CN1CCN(CCN2CCC(c3cn(-c4ccc(F)cc4)c4ccc(Cl)cc34)CC2)C1=O [Compound 6b, 5-chloro-3-[1-[2-(3-dimethylaminomethyl-2-imidazolidinon-1-yl)ethyl]-4-piperidyl]-1-(4-fluorophenyl)-1H-indole] | 9.22 | – | – | – | –
10 | O=C1N(CCN2CCC(c3cn(-c4ccc(F)cc4)c4ccc(Cl)cc34)CC2)CCN1CN1CCOCC1 [Compound 6a, 5-Chloro-1-(4-fluorophenyl)-3-[1-[2-[3-(1-morpholinomethyl)-2-imidazolidinon-1-yl]ethyl]-4-piperidyl]-1H-indole] | 9.01 | 0.079 | – | – | –
11 | CC(C)c1ccc(C(=O)N2CCN(CCN3CCC(c4cn(-c5ccc(F)cc5)c5ccc(Cl)cc45)CC3)C2=O)cc1 [Compound 8a, 5-Chloro-1-(4-fluorophenyl)-3-[1-[2-[3-(4-isopropylbenzoyl)-2-imidazolidinon-1-yl]ethyl]-4-piperidyl]-1H-indole] | 7.70 | 0.12 | – | – | –
12 | CCOCN1CCN(CCN2CCC(c3cn(-c4ccc(F)cc4)c4ccc(Cl)cc34)CC2)C1=O [Compound 7a, 5-Chloro-3-[1-[2-(3-ethoxymethyl-2-imidazolidinon-1-yl)ethyl]-4-piperidyl]-1-(4-fluorophenyl)-1H-indole] | 8.92 | 0.081 | – | – | –
13 | CCCCCCCCCC(=O)N1CCN(CCN2CCC(c3cn(-c4ccc(F)cc4)c4ccc(Cl)cc34)CC2)C1=O [Compound 1b, 5-chloro-3-[1-[2-(3-decanoyl-2-imidazolidinon-1-yl)ethyl]-4-piperidyl]-1-(4-fluorophenyl)-1H-indole] | 7.24 | 0.09 | – | – | –
14 | CCCCCCCCCCCCCCCC(=O)N1CCN(CCN2CCC(c3cn(-c4ccc(F)cc4)c4ccc(Cl)cc34)CC2)C1=O [Compound 1e] | 7.33 | 0.77 | – | – | –
15 | CC(=O)N1CCN(CCN2CCC(c3cn(-c4ccc(F)cc4)c4ccc(Cl)cc34)CC2)C1=O [Compound 1a] | 8.92 | 0.029 | – | – | decompose to sertindole after injection of a depot formulation
16 | CCCCCCCCCCOC(=O)N1CCN(CCN2CCC(c3cn(-c4ccc(F)cc4)c4ccc(Cl)cc34)CC2)C1=O [Compound 4d, 5-chloro-3-[1-[2-[3-(1-decyl)oxycarbonyl-2-imidazolidinon-1-yl]ethyl]-4-piperidyl]-1-(4-fluorophenyl)-1H-indole] | 7.89 | 1.1 | – | – | –
17 | CCCCCC(=O)N1CCN(CCN2CCC(c3cn(-c4ccc(F)cc4)c4ccc(Cl)cc34)CC2)C1=O [Compound 8e, 5-chloro-1-(4-fluorophenyl)-3-[1-[2-(3-hexanoyl-2-imidazolidinon-1-yl)ethyl]-4-piperidyl]-1H-indole] | 7.42 | 0.039 | – | – | –
18 | CCCC(=O)N1CCN(CCN2CCC(c3cn(-c4ccc(F)cc4)c4ccc(Cl)cc34)CC2)C1=O [Compound 8d, 3-[1-[2-(3-butanoyl-2-imidazolidinon-1-yl)ethyl]-4-piperidyl]-5-chloro-1(4-fluorophenyl)-1H-indole] | 8.25 | 0.014 | – | – | –
